Assay results from patent publication US9540361B2, “N-substituted azetidine derivatives” (Merck Sharp & Dohme B.V., priority 2010, dated 2017).

Key:
[1] = Rapid Rat PK after oral administration; assay type: in vivo, rats (Rattus Norvegicus); conditions: 20 umol/kg, plasma, oral 20 μmol/kg; for AUC: AUC(0-6h), read-out: RRat AUC; for Cmax: read-out: RRat Cmax
Procedure: In the context of the present invention with “orally bioavailable” is meant that compounds, when dosed orally to a rat show oral exposure as determined by quantification of compound plasma levels in that rat. Typically, compounds are dosed orally at 20 μmol/kg, as described in Example 14 hereinbelow. Oral exposure is determined by measuring plasma levels over the time range of 0-6 h after dosing and is expressed by AUC(0-6h).
This test was used to determine the pharmacokinetic parameters (AUC(0-6h), Cmax and Tmax) after oral administration of compounds in male (intact or castrated) or female (intact or ovariectomized) rats (Rattus Norvegicus).
After oral administration of a compound at 20 μmol/kg, blood was collected at various time points (0.5, 1, 2, 3, 4 and 6 hours after compound administration) via the tail vein. Plasma samples were pooled per time point, after which the concentration was determined in plasma by means of LC-MS. Pharmacokinetic parameters (AUC(0-6h), Cmax and Tmax) were derived from the obtained concentration versus time curves using the non-compartmental analysis module in Animals! or WinNonlin.

[2] = target: T1, human estrogen receptor α (hERα) (Homo sapiens, UniProt P03372); assay: antagonistic activity in CHO cells co-transfected with hERα, rat oxytocin promoter and luciferase reporter gene; assay type: cell-based; conditions: antagonism of 17β-estradiol-induced transactivation, CHO-hERα-RO-LUC; read-out: ERα pIC50 (converted)
T1 sequence (P03372 1-595): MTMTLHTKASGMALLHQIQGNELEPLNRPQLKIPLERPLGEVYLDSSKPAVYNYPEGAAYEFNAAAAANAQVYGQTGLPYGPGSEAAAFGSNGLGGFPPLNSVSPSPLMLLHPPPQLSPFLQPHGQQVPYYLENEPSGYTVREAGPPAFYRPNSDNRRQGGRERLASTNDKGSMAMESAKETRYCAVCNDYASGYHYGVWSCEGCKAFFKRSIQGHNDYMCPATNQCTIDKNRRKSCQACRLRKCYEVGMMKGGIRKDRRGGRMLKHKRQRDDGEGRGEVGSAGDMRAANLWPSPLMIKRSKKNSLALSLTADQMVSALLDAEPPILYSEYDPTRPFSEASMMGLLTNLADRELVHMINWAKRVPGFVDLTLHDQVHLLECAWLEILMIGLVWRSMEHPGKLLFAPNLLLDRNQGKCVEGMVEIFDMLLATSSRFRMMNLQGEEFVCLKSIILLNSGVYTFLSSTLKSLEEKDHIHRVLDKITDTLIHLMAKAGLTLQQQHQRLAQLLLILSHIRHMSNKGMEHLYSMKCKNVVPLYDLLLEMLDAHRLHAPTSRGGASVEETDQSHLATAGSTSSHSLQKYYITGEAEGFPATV
Method in brief: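 Recombinant CHO cells stably carrying hERα, rat oxytocin promoter and luciferase reporter, with receptor activated by 17β-estradiol. Antagonist efficacy given as maximal inhibition relative to that of the reference anti-estrogen ICI 164,384.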

estrogen receptor alpha = target: T2, estrogen receptor alpha (Homo sapiens, UniProt P03372); assay: ERα downregulation assay in T47D breast cancer cells (ERα ELISA); assay type: cell-based; conditions: downregulation of ERα relative to fulvestrant (100%), 1E-5 M, 24 hours, negative = upregulation
T2 construct: endogenous in cells; host or cells: T47D human breast cancer cells (ATCC)
T2 sequence (P03372 1-595): T1 sequence (P03372 1-595)
Method in brief: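 T47D cells were treated with 1E-5 M test compound for 24 hours, then lysed in the well. ERα protein content was measured by ELISA. Efficacy is given as fraction of maximal response relative to fulvestrant, defined as 100% downregulation.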

MCF-7H cells = assay: 7-day in vitro proliferation assay in tamoxifen-resistant MCF-7H breast cancer cells (methyl-3H-thymidine incorporation); assay type: cell-based, human; conditions: Homo sapiens, MCF7, 168 h; efficacy (fraction of maximal response relative to E2) in MCF-7H proliferation; read-out: MCF7 ia
Procedure: To what extent compounds are capable of stimulating proliferation in ER-positive, tamoxifen-resistant breast cancer cells is tested in a 7-day in vitro proliferation assay using MCF-7H cells. More specifically, this in vitro bioassay is used to determine the efficacy (fraction of maximal response), pEC50, and relative potency of the compound to induce proliferation by comparing the data for this compound with those of the reference compound 17β-estradiol (E2) in the same test.
A more detailed description of the method used is as follows.
Cell culture: The human epithelial breast cancer cell line MCF-7H (origin: Hubrecht Laboratory, Utrecht, The Netherlands) was routinely maintained in complete medium which is a 1:1 mixture of Ham's F12 medium and Dulbecco's Modified Eagle Medium (DMEM; Invitrogen, Carlsbad, USA) without phenol red and enriched with 5% fetal calf serum (FCS; Hyclone, Utah, USA), 100 μg/ml streptomycin and 100 units/ml penicillin adapted to contain:
Cells were grown in 80 cm^2 culture flasks (Nunc, Roskilde, Denmark) and kept in an atmosphere of 5% CO2-95% air at 37 degrees Celsius. Cells were subcultured when they reached about 80-90% confluence, resulting in one passage a week. Subculturing includes detaching the cells using trypsin/EDTA and diluting the cell suspension 10 times.
Methyl-^3H-thymidine incorporation assay: MCF-7H cells were starved overnight in assay medium containing 5% charcoal-treated (CT) bovine calf serum (BCS; Hyclone) instead of FCS and a final concentration of 1.0 μg/ml bovine insulin, the day before plating. Cells were plated in assay medium containing 5% CT BCS, in white 24-wells plates (Perkin Elmer, Shelton, USA), at a density of 7.5×10^3 cells per well, each well containing 630 μL assay medium. Cells were allowed to attach and spread for 24 h before stimulation with reference and/or test compound(s). After a stimulation period of 7 days, 0.25 μCi/well of methyl-^3H-thymidine (GE Healthcare Limited, Buckinghamshire, UK) was added per well. Cultures were maintained in an atmosphere of 5% CO2-95% air at 37 degrees Celsius. After overnight incubation, excess methyl-^3H-thymidine was aspirated and the cells were washed with phosphate-buffered saline (PBS). After 1 h of incubation with 1 ml scintillation fluid Microscint-20 (Perkin Elmer), radioactivity was measured in a Packard TOP-count NXT microplate scintillation counter (Perkin Elmer).

AUC [1] | Cmax [1] | IC50 [2] | DR (%) (estrogen receptor alpha) | Compound | Emax (MCF-7H cells)
1.07 µM·h | 230 nM | 5.01 nM | 63% | CCCN1CC(Oc2ccc(C(=C(CC)c3ccccc3)c3cccc(O)c3)cc2)C1 (mixture of isomers) [compound 6w, (E/Z)-3-(2-phenyl-1-(4-(1-propylazetidin-3-yloxy)phenyl)but-1-enyl)phenol] | 
 |  | 1.58 nM | 79% | CCCN1CC(Oc2ccc(C(=O)c3c(-c4ccc(O)cc4)sc4cc(O)ccc34)cc2)C1.O=C(O)C(F)(F)F [compound 6d, (6-hydroxy-2-(4-hydroxyphenyl)benzo[b]thiophen-3-yl)(4-(1-propylazetidin-3-yloxy)phenyl)methanone 2,2,2-trifluoroacetate] | 5%
2.05 µM·h | 570 nM | 0.251 nM | 57% | CCCN1CC(Oc2ccc(-c3c(-c4ccccc4Cl)noc3-c3ccc(O)cc3)cc2)C1 [compound 6g, 4-(4-(4-(N-propylazetidin-3-yloxy)phenyl)-3-(2-chlorophenyl)isoxazol-5-yl)-phenol] | 2%
 |  | 2 nM | 81% | CCCN1CC(Oc2ccc(C(=O)c3c(-c4ccccc4Cl)noc3-c3ccc(O)cc3)cc2)C1.Cl [compound 6m, (3-(2-chlorophenyl)-5-(4-hydroxyphenyl)isoxazol-4-yl)(4-(1-propylazetidin-3-yloxy)phenyl)methanone hydrochloride] | 7%
 |  | 0.251 nM | 47% | CCCN1CC(Oc2ccc([C@@H]3c4ccc(O)cc4CC[C@@H]3c3ccccc3)cc2)C1.Cl [compound 6q, (5R,6S)-6-phenyl-5-(4-(1-propylazetidin-3-yloxy)phenyl)-5,6,7,8-tetrahydronaphthalen-2-ol hydrochloride] | 6%
1.97 µM·h | 450 nM | 31.6 nM | 75% | CCCN1CC(Oc2ccc(C(=C(CC)c3ccccc3)c3ccccc3)cc2)C1.O=C(O)C(F)(F)F [compound 6u, 3-(4-(1,2-diphenylbut-1-enyl)phenoxy)-1-propylazetidine 2,2,2-trifluoroacetate] | 8%
3.58 µM·h | 990 nM | 1 nM | 93% | Cl.Oc1ccc(-c2onc(-c3ccccc3Cl)c2-c2ccc(OC3CN(CCCF)C3)cc2)cc1 [compound 7aa, 4-(3-(2-chlorophenyl)-4-(4-(1-(3-fluoropropyl)azetidin-3-yloxy)phenyl)isoxazol-5-yl)phenol hydrochloride] | 
 |  | 2.51 nM | 94% | O=C(c1ccc(OC2CN(CCCF)C2)cc1)c1c(-c2ccccc2Cl)noc1-c1ccc(O)cc1 [compound 7ah] | 6%
 |  | 3.16 nM | 93% | CCCN1CC(Oc2ccc(C(=O)c3c(-c4c(F)cccc4F)noc3-c3ccc(O)cc3)cc2)C1.Cl [compound 7ak, (3-(2,6-difluorophenyl)-5-(4-hydroxyphenyl)isoxazol-4-yl)(4-(1-propylazetidin-3-yloxy)phenyl)methanone hydrochloride] | 7%
3.8 µM·h | 990 nM | 25.1 nM | 84% | CCCN1CC(Oc2ccc(C(O)c3c(-c4ccccc4Cl)noc3-c3ccc(O)cc3)cc2)C1 (stereo not shown) [compound 7av, 4-(3-(2-chlorophenyl)-4-(hydroxy(4-(1-propylazetidin-3-yloxy)phenyl)methyl)isoxazol-5-yl)phenol] | 
 |  | 6.31 nM | 88% | CCCN1CC(Oc2ccc(C(=O)c3c(-c4ccc(O)cc4)noc3-c3ccccc3C)cc2)C1.Cl [compound 7az, (3-(4-hydroxyphenyl)-5-o-tolylisoxazol-4-yl)(4-(1-propylazetidin-3-yloxy)-phenyl)methanone hydrochloride] | 8%
 |  | 2 nM | 90% | CCCN1CC(Oc2ccc(C(=O)c3c(-c4ccccc4C)nsc3-c3ccc(O)cc3)cc2)C1.Cl [compound 7bb, (5-(4-hydroxyphenyl)-3-o-tolylisothiazol-4-yl)(4-(1-propylazetidin-3-yloxy)-phenyl)methanone hydrochloride] | 3%
1.55 µM·h | 520 nM | 0.316 nM | 32% | CC(C)CN1CC(Oc2ccc(-c3c(-c4ccccc4Cl)noc3-c3ccc(O)cc3)cc2)C1.Cl [compound 7w, 4-(3-(2-chlorophenyl)-4-(4-(1-isobutylazetidin-3-yloxy)phenyl)isoxazol-5-yl)-phenol hydrochloride] | 
1.2 µM·h | 290 nM | 0.316 nM | 57% | Cl.Oc1ccc(-c2onc(-c3ccccc3Cl)c2-c2ccc(OC3CN(CC4CC4)C3)cc2)cc1 [compound 7y, 4-(3-(2-chlorophenyl)-4-(4-(1-(cyclopropylmethyl)azetidin-3-yloxy)phenyl)-isoxazol-5-yl)phenol hydrochloride] | 
1.03 µM·h | 350 nM | 0.398 nM | 58% | Cl.Oc1ccc(-c2onc(-c3ccccc3Cl)c2-c2ccc(OC3CN(CC4CCC4)C3)cc2)cc1 [compound 7z, 4-(3-(2-chlorophenyl)-4-(4-(1-(cyclobutylmethyl)azetidin-3-yloxy)phenyl)-isoxazol-5-yl)phenol hydrochloride] | 
